Molecules are shown by their SMILES.

Series [1] has as its system COS7 cells. In words: Protein biosynthesis by incorporation of [3H]Phe. Format: cell-based, monkey. The following applies: for Protein synthesis: LM-2 medium supplement, value in full DMEM medium set to 100, average ± SD of triplicate; for effect on protein biosynthesis: addition to LM-2 medium. The source says: (§1) Unnatural amino acids frequently are toxic to cells. To find out if this is the case for photo-amino acids of the invention, we monitored in COS7 cells protein biosynthesis by incorporation of [^3H]Phe and viability by trypan blue exclusion of cells grown in the presence or absence of the photo-amino acids photo-Leu, photo-Met and photo-Ile. Due to the lack of two essential amino acids in the growth medium, protein biosynthesis is reduced to about 65% of that in a full growth medium. […] Although cells grew slightly slower than in full growth medium, viability (Table 2) and cell morphology (not shown) were unaffected.

In series [2] the test system is E. coli beta-galactosidase. In words: Activity of beta-galactosidase expressed in cells grown with photo-amino acids. Particulars: COS 7 cells, 20 h in LM-2 with photo-amino acid; percent ± SD (n = 6) of value in DMEM + FCS. The format is cell-based, monkey. The source says:
We furthermore tested, whether proteins produced by cells grown with photo-amino acids are functional or not. For that, we transfected cells with GFP-fusion constructs of the small GTPase Rab5 and of mutated Rab5 that is constitutively activated (GFP-Rab5QL) or dominant negative (GFP-Rab5SN)^19 and monitored the GFP fluorescence by confocal microscopy. Four hours after transfection, when cells were switched to media containing photo-amino acids, no GFP signal was detectable (see FIG. 7). […] Both, staining intensity and localization were unaffected by the presence of either of the photo-amino acids. Taking into account a frequency of substitution of photo-Met for Met of 35% (see below) and the amounts of Met in Rab5 and GFP, more than 80% of the fusion protein will have photo-Met in both the Rab5- and the GFP-part of the fusion, more than 99% in at least one of the two parts. […] To corroborate this with a quantitative assay, we measured the activity of beta-galactosidase that was expressed in the absence or presence of photo-amino acids (see Table 4). Activity in LM-2 labeling medium was 79% of that in full DMEM. The addition of either of the three photo-amino acids or of a mixture of photo-Met and photo-Leu had no significant additional effect. E. coli beta-galactosidase contains 23 methionines of which on average 8 would be replaced by photo-Met; less than 0.01% of the protein are expected to have no substitution by photo-Met. We conclude that photo-amino acids are non-toxic to cultivated mammalian cells and can, at least partially, functionally replace branched chain amino acids and methionine.

Series [3] relates to COS7 cells. In words: Cell viability by trypan blue exclusion. The format is cell-based, monkey. Particulars: LM-2 medium supplement; percent ± SD of viable cells (n = 6).
Source text: as §1

In series [4] the test system is caveolin-1. Put plainly: Photo-crosslinking of transfected caveolin-1 in COS7 cells. Format: cell-based, human. Particulars: irradiated samples, COS7 cells in LM-4. Here is the method: FIG. 3: Photo-crosslinking induced by photo-amino acids. COS7 cells (panels a,b) or HeLa cells (panel c) were grown in LM-4 (panel a) or LM-2 (panels b,c) in the absence or presence of L-photo-Leu (pL), L-photo-Met (pM) or DL-photo-Ile (pl) or mixtures of them (pLM or PLMI) followed by UV irradiation (+) or no irradiation (−). cross-linked products formed after UV-irradiation were detected by SDS-PAGE followed by western blotting using (a) anti-caveolin 1 to detect overexpressed caveolin 1, (b) anti-stomatin to detect endogenous stomatin or (c) anti-EEA1 to detect endogenous EEA1. In panel b, lanes 8 and 9 show cross-linking with two different concentrations of the chemical cross-linker DSS for comparison of cross-linking efficiency. In panel c, photocrosslinking of endogenous EEA1 by photo-Leu and photo-Met is compared to chemical cross-linking using DSS or para-formaldehyde (PFA) as indicated. Note that chemical cross-linking leads to protein aggregates that are not resolvable by SDS-PAGE while photocrosslinking identifies more than six discrete cross-linked bands.
COS7 (monkey kidney) cells were grown in DMEM high glucose (Gibco no. 11995; with L-glutamine and Na-pyruvate)+10% FCS. Typically, 3 cm2 of cells are needed for a cross-linking experiment with detection by western blotting. At about 70%, medium was replaced by LM-4 (DMEM lacking Met, Leu, Ile and Val and phenol red, supplemented with 5% dialyzed FCS) or by LM-2 (LM-4+1 mM of each Ile and Val). Photo-amino acids were added to a final concentration of 4 mM photo-Leu and photo-Ile, 1.7 mM photo-Met and cells were cultivated for further 22 h followed by washing with PBS and UV-irradiation using a 200 W high pressure mercury lamp (Oriel Photomax) with a glass filter to remove wavelengths shorter 310 nm. The samples were placed at a distance of 38 cm to the light source, corresponding to a illuminated area of 105 mm diameter. […] We used an irradiation time 1-3 min for experiments with living cells. […] Lysis of cells, SDS-PAGE and western blotting were done as described^33. […]

The test system of series [5] is COS7 cells. Put plainly: Cell viability after UV irradiation by trypan blue exclusion. The format is cell-based, monkey.
For series [6], the system named is COS7 cells. The series is described as above. Format: cell-based, monkey. The protocol: COS7 (monkey kidney) cells were grown in DMEM high glucose (Gibco no. 11995; with L-glutamine and Na-pyruvate)+10% FCS. Typically, 3 cm2 of cells are needed for a cross-linking experiment with detection by western blotting. At about 70%, medium was replaced by LM-4 (DMEM lacking Met, Leu, Ile and Val and phenol red, supplemented with 5% dialyzed FCS) or by LM-2 (LM-4+1 mM of each Ile and Val). Photo-amino acids were added to a final concentration of 4 mM photo-Leu and photo-Ile, 1.7 mM photo-Met and cells were cultivated for further 22 h followed by washing with PBS and UV-irradiation using a 200 W high pressure mercury lamp (Oriel Photomax) with a glass filter to remove wavelengths shorter 310 nm. The samples were placed at a distance of 38 cm to the light source, corresponding to a illuminated area of 105 mm diameter. […] We used an irradiation time 1-3 min for experiments with living cells. […] Lysis of cells, SDS-PAGE and western blotting were done as described^33. For immunoprecipitation, cells were lysed in 20 mM Hepes/NaOH pH 7.4, 100 mM NaCl, 5 mM EDTA, 1% Triton X 100, 0.5% sodium deoxycholate, the lysate was cleared with protein-A beads and incubated with beads that were preincubated with polyclonal anti-myc or anti-HA antibody. Beads were collected and washed three times each with 20 mM Hepes/NaOH pH 7.25, 0.5% CHAPS and with 100 mM Tris-HCl pH 8.3, 150 mM NaCl, 2 mM EDTA, 0.1% w/v SDS, 0.5% w/v Nonidet P40, 0.5% w/v sodiumdeoxycholate. Proteins were eluted from beads by heating with reducing SDS-PAGE sample buffer.
as §1
The source holds these as a separate data set.

Series [7] has as its system HA-tagged human PGRMC1. Put plainly: Competition of PGRMC1 cross-linking by natural amino acids. The format is cell-based. Particulars: 3 mM competing amino acid, COS7 cells in LM-4. The protocol: FIG. 4: Specificity of incorporation and cross-linking by photo-Met and photo-Leu. COS7 cells were transfected with HA-tagged human PGRMC1 and were grown in LM-4 in the absence or presence of photo-Leu (A) or photo-Met (B) with addition of 3 mM of the indicated competing amino acid. cross-linked products formed after UV-irradiation were detected by SDS-PAGE followed by western blotting against the HA-epitope. (C) COS7 cells were grown in the presence of 1.7 mM [1-^14C]photo-Met, a constant trace amount of [^3H]Phe and 3 mM of competing unlabeled amino acids as indicated in the legend. Protein was precipitated and protein-bound radioactivity was determined by scintillation counting. […] The control value obtained in the absence of competing amino acid (con) is set to 100. Data are average±SD of triplicate determinations.
If so, addition of the complementary naturally occurring amino acid should strongly reduce incorporation and inhibit photo-crosslinking. […] To find out if competition for cross-linking reflects competition for incorporation, we competed incorporation of [1-^14C]photo-Met with the same set of amino acids (FIG. 4c). […] It should be noted that Met, Val, Leu and Ile all are transported into cells by the L-type transport system^25, which presumably also transports the three photo-amino acids. The strong difference in competition by Met and Leu versus Val and Ile excludes competition at the level of uptake.

On to `CC(C(N)C(=O)O)C1(C)N=N1` (stereo not drawn) [photo-Ile, 2R,S-Amino-3-R,S-methyl-4,4′-azi-pentanoic acid], for which, in series [1], the Protein synthesis came out at 62.8 ± 2.8 and the “effect on protein biosynthesis” value is “no significant effect”. The beta-galactosidase activity in series [2] amounted to 93 ± 9%. Also, the Cell viability in series [3] worked out at 99.6 ± 0.3%. The “formation of covalent caveolin dimers upon UV irradiation” value in series [4] is “very little cross-linking”.
Turning to `CC1(CC(N)C(=O)O)N=N1` [photo-Leu, L-2-amino-4,4′-azi-pentanoic acid], the Cell viability is 99.5 ± 0.3% in series [5] (10 min UV); 91.5 ± 4.0% in series [5] (10 min UV + 1 h chase); 98.8 ± 0.4% in series [5] (30 min UV); 17.9 ± 3.2% in series [5] (30 min UV + 1 h chase); 99.5 ± 0.2% in series [6] (1 min UV); 95.5 ± 3.0% in series [6] (1 min UV + 1 h chase). Further, the Cell viability in series [6] (3 min UV) is 99.6 ± 0.2%; in series [6] (3 min UV + 1 h chase), 95.3 ± 1.8%; in series [6] (no UV + 1 h chase at 37 degree Celsius in PBS) it was 99.3 ± 0.5%; in series [6] (no UV, percent ± SD of viable cells), 99.5 ± 0.3%; in series [3], 99.8 ± 0.2%. This molecule also yielded a Protein synthesis in series [1] of 61.5 ± 1.7. Also, the “effect on protein biosynthesis” value in series [1] is “no significant effect”. The beta-galactosidase activity in series [2] came out at 68 ± 9%. In addition, the “competition of cross-linking by Met, Val, Leu and Ile” value in series [7] was “competed mainly by Leu”. In addition, the “formation of covalent caveolin dimers upon UV irradiation” value in series [4] is on record as “significant formation of a cross-linked dimer”.

Source of the values: US20090211893A1, “Photo-Activatable Amino Acids” (priority 2005, published 2009).
